Consider four molecules from patent US12383534B2, “Methods for treating cancer” (REGENTS OF THE UNIVERSITY OF MINNESOTA, priority 2021, dated 2025).

Each structure is given as a SMILES string.

The subject of assay [1] is wide spectrum of cancer cell lines. Conditions: cited from earlier work.
Assay [2] has as its system CIC-DUX4 target genes ETV1, 4, and 5. The assay is described as follows: RT-qPCR for CIC-DUX4 target genes in NCC-CDS-X1 cells. Conditions: NCC-CDS-X1, 24 hours, highest concentration. In kind it is cell-based, human. As for the experimental part:
RNA was extracted using an RNA extraction kit (Zymo) and cDNA was made using 0.5 μg total RNA with oligo-dT primer and Verso cDNA Synthesis Kit (Thermo Scientific) following the manufacturer's instructions. qPCRs were performed by using Premix Ex Taq (Probe qPCR, Takara) or SYBR-green. Gene expression levels were normalized to that of GAPDH and analyzed with 7500 System Software using the ACT method (Applied Biosystems). RNA-seq library preparation was done with 500 ng total RNA from NCC-CDS-X1 cells treated for 4 or 24 hours with iP300w (0.3 μM) using the Swift Rapid RNA Library Kit (SwiftBioscience). 36 base paired-end sequencing was performed on an Illumina NextSeq instrument at the University of Minnesota Genomics Center.
Next, the effect of the stereoisomers on the CIC-DUX4 target genes in cells cultured with the compounds for 24 hours was analyzed.

In assay [3] the test system is NCC-CDS-X1 cells (CIC-DUX4 sarcoma cell line). Kind of assay: Cell viability (ATP) assay in NCC-CDS-X1 cells. The class given is cell-based, human. The method, then: Basal media were purchased from HyClone, fetal bovine serum (FBS) was from PeakSerum (Ps-FB3, lot 293Q16), and Glutamax (Glu) and Penicillin/Streptomycin (P/S) were from GIBCO. NCC-CDS-X1 (CIC-DUX4 sarcoma cell line, a generous gift from Tadashi Kondo) cell line was cultured in RPMI with 10% FBS, Glu and P/S, Kitra-SRS (CIC-DUX4 sarcoma cell line, a generous gift from Hidetatsu Otani), 3T3, 293T and C2C12 cell lines were cultured in DMEM/10% FBS/Glu/P/S. The immortalized human myoblast LHCN-M2 cell line was cultured in proliferation medium: F10 supplemented with 20% FBS, 2-mercaptoethanol 1× (GIBCO), 10^−9 M dexamethasone (Sigma), 10 ng/mL bFGF (Peprotech), and Glu/P/S. All cells were cultured at 37° C. in a 5% CO2 atmosphere.
Cell lines were plated in a 96 well dish (1×10^5 cells/well), and the following day were treated with iP300w or its stereoisomers. ATP assays were performed using CellTiter-Glo® Luminescent Cell Viability Assay (Promega) according to the manufacturer's instructions. Luminescence was analyzed on POLARstar Optima Microplate Reader (BMG Labtech, Offenburg, Germany).
The activity of the various iP300w stereoisomers against NCC-CDS-X1 cells was evaluated. Cultures were treated with serial dilutions, ranging from 0.003 μM to 3.0 μM, for up to 96 hours. In cells treated with iP300w, a significant decrease in cell viability was evident at the lowest concentration (0.003 μM) at 48 and 96 hours (FIG. 3A). The effect was dose- and time-dependent. […] (FIG. 2B and FIG. 9).

Assay [4] concerns p300 and CBP. Conditions: in vitro and in vivo; cited from earlier work.
Assay [5] has as its system CDS cell lines. Conditions: screens of FDA-approved anticancer molecules; cited from earlier work.
Assay [6] concerns Kitra-SRS cells (IGF-1R). Conditions: cited from earlier work.

With `CNC(=O)Nc1ccc2c(c1)CC[C@@]21OC(=O)N(CC(=O)N(Cc2ccc(F)cc2)[C@@H](C)C(F)(F)F)C1=O` [A-485, reference compound], in assay [1] (high MITF-expressing melanoma cell lines and NUT midline carcinoma), the “efficacy against melanoma and NUT midline carcinoma” value is given as “effective against high MITF-expressing melanoma cell lines”. In assay [1] (more prominently in those of hematopoietic origin), the “effect on proliferation of cancer cell lines” value is reported as “suppress proliferation of a wide spectrum of cancer cell lines”. Besides, the “effect on ETV4 expression at the highest concentration” value in assay [2] is reported as “notable effect on ETV4”. Further, the “fold less potent than iP300w (from IC50 values)” value in assay [3] (NCC-CDS-X1, IC50 at 48 and 96 hours) is given as “approximately 200 fold”. Besides, the “activity on cell viability” value in assay [3] (NCC-CDS-X1, up to 96 hours, 0.003 to 3.0 μM) is recorded as “also showed activity, but at higher concentrations”. The “inhibition of acetylation by p300 and CBP” value in assay [4] was “inhibit acetylation by p300 and CBP both in vitro and in vivo”.

Regarding `C[C@@H](Oc1cc(-c2cnn(C3CCNCC3)c2)cnc1N)c1c(Cl)ccc(F)c1Cl` [crizotinib], in assay [5], the “effectiveness in vitro on CDS cell lines” value was “some degree of effectiveness in vitro”.

Consider `CC(C)C[C@H](NC(=O)[C@H](Cc1ccccc1)NC(=O)c1cnccn1)B(O)O` [bortezomib], for which the “effectiveness in vitro on CDS cell lines” value in assay [5] is “some degree of effectiveness in vitro”.

As for `C[C@]1(O)C[C@@H](c2nc(-c3ccc4ccc(-c5ccccc5)nc4c3)c3c(N)nccn32)C1` [linsitinib], in assay [6], the “effect on cell proliferation” value is reported as “reduced cell proliferation”.
